The source of these data is US4760148A, “5-aralkyl substituted 2H-benzotriazoles and stabilized compositions” (Ciba-Geigy Corporation, priority 1985, dated 1988).

The conditions of data set [1]: in words, prior art patents; cited from earlier work.
The conditions of data set [2]: in words, prior art patents; cited from earlier work. This is another data set of the same source.
The nature of data set [3]: Solubility of benzotriazole stabilizers. It is filed as physicochemical. The following applies: 25° C. From the text: The benzotriazole stabilizers are classically materials with relatively low solubility in common organic solvents. This is particularly the case where the benzotriazole is substituted in the 2-phenyl ring with aralkyl groups intended to decrease stabilizer volatility during processing and use.

The nature of data set [4]: Thermal gravimetric analysis (resistance to loss of benzotriazole stabilizers). The following applies: for Time (minutes) to 50% Weight Loss of Stabilizer: isothermal at 280° C.; for Time (minutes) to 50% Weight Loss of Stabilizer / Temperature °C. to 10% Weight Loss of Stabilizer / Temperature °C. to 50% Weight Loss of Stabilizer: 100 ml nitrogen/minute; for Temperature °C. to 10% Weight Loss of Stabilizer / Temperature °C. to 50% Weight Loss of Stabilizer: scanning at 10°(C.) per minute; for resistance to thermogravimetric loss: in words, compared with prior art benzotriazole F.
Experimental: A number of 2-aryl-2H-benzotriazole light stabilizers are subjected to thermal gravimetric analysis with a flow rate of 100 ml nitrogen/minute both isothermally at 280° C. to indicate the time in minutes to reach 50% weight loss of the stabilizer as well as in a scanning mode at a heating rate of 10° (C.) per minute to ascertain the temperature at which 10% and 50% weight loss of stabilizer are observed.

The nature of data set [5]: Absorbance at 340nm (extinction coefficients). It counts as physicochemical. The following applies: for Specific Extinction Coefficient a: equal weight basis. From the text:
The compounds of this invention show unanticipated enhancement of absorbance at 340nm as can be seem from a comparison of molar extinction coefficients E compared to state of the art compund F which lacks an aralkyl-substituent in the 5-position. In many cases the enhanced absorbance is also seen when products are compared i.e. in terms of Specific Extinction Coefficients a on an equal weight rather than molar basis.
Molar Extinction Coefficient E = a × molecular weight

A short description of data set [6]: Stabilizer loss on milling into polycarbonate resin. The following applies: milling at 400° F. (240° C.), 15 minutes, spectrophotometric. On the procedure: Samples of light stabilizers are incorporated into polycarbonate resin by milling at 400° F. ([…]) for a 15 minute period. […] At the end of the milling period the percent stabilizer loss is determined spectrophotometrically.

Data set [7] is described as follows: Solubility of crystalline modification forms. The following applies: organic solvents including xylene and methyl amyl ketone. It counts as physicochemical.

Consider `CC(C)(C)CC(C)(C)c1cc(-n2nc3ccccc3n2)c(O)c(C(C)(C)CC(C)(C)C)c1` [2-(2-hydroxy-3,5-di-tert-octylphenyl)-2H-benzotriazole], for which, in data set [1], the “solubility in substrates and processing solvents” value is “enhanced solubility in processing solvents and substrates”. Also, the “resistance to loss by volatilization” value in data set [2] was “did not have outstanding resistance to loss by volatilization”.
In the case of `CCC(C)(C)c1cc(-n2nc3ccccc3n2)c(O)c(C(C)(C)CC)c1` [Compound B, 2(2-hydroxy-3,5-di-tert-amylphenyl)-2H--benzotriazole], in data set [3], the “Solubility in Butyl Cellosolve Acetate” value was 19 grams per 100 grams solvent, the “Solubility in Heptane” value is listed as 23 grams per 100 grams solvent, the “Solubility in Methyl Amyl Ketone” value is on record as 34 grams per 100 grams solvent and the “Solubility in Xylene” value is 70 grams per 100 grams solvent. In addition, in data set [4], the “Time (minutes) to 50% Weight Loss of Stabilizer” value is 0.9 min, the “Temperature °C. to 10% Weight Loss of Stabilizer” value came to 200 °C and the “Temperature °C. to 50% Weight Loss of Stabilizer” value turned out to be 233 °C.
In the case of `CC(C)(c1ccccc1)c1cc(-n2nc3ccccc3n2)c(O)c(C(C)(C)c2ccccc2)c1` [Compound F, 2-[2-hydroxy-3,5-di-(alpha,alpha-dimethylbenzyl)phenyl]-2 H-benzotriazole], in data set [3], the “Solubility in Butyl Cellosolve Acetate” value is reported as 14 grams per 100 grams solvent, the “Solubility in Heptane” value was 1.5 grams per 100 grams solvent, the “Solubility in Methyl Amyl Ketone” value is given as 6 grams per 100 grams solvent and the “Solubility in Xylene” value was 16 grams per 100 grams solvent. In data set [5], this molecule had a Molar Extinction Coefficient E of 15100 L/mol/cm and a Specific Extinction Coefficient a of 34 L/g/cm. Further, in data set [6], the “% loss (by weight) of stabilizer” value is given as below 3%. Further, the “solubility in substrates and processing solvents” value in data set [1] is “relatively low solubility in some substrates and processing solvents”. Moreover, the “resistance to loss by volatilization” value in data set [2] is recorded as “superior resistance to loss from stabilized compositions during high temperature processing”. For the same molecule, in data set [4], the “Time (minutes) to 50% Weight Loss of Stabilizer” value amounted to 24 min, the “Temperature °C. to 10% Weight Loss of Stabilizer” value was 300 °C and the “Temperature °C. to 50% Weight Loss of Stabilizer” value is 340 °C.
For `CC(C)(C)CC(C)(C)c1cc(-n2nc3ccccc3n2)c(O)c(C(C)(C)c2ccccc2)c1` [Compound G, 2-[2-hydroxy-3-(alpha,alpha-dimethylbenzyl)-5-tert-octylphenyl]-2H-benzotriazole], in data set [3], the “Solubility in Butyl Cellosolve Acetate” value is listed as 19 grams per 100 grams solvent, the “Solubility in Heptane” value was 9.7 grams per 100 grams solvent, the “Solubility in Methyl Amyl Ketone” value is on record as 33 grams per 100 grams solvent and the “Solubility in Xylene” value is recorded as 82 grams per 100 grams solvent. Also, in data set [4], the “Time (minutes) to 50% Weight Loss of Stabilizer” value amounted to 7.4 min, the “Temperature °C. to 10% Weight Loss of Stabilizer” value was 267 °C and the “Temperature °C. to 50% Weight Loss of Stabilizer” value turned out to be 307 °C.
Turning to `CC(C)(C)c1cc(-n2nc3ccc(C(C)(C)c4ccccc4)cc3n2)c(O)c(C(C)(C)C)c1` [Example 7, 5-alpha,alpha-Dimethylbenzyl-2-(2-hydroxy-3,5-di-tert-butylphenyl)-2H-benzotriazole], in data set [3], the “Solubility in Butyl Cellosolve Acetate” value was 61 grams per 100 grams solvent, the “Solubility in Heptane” value is given as 97 grams per 100 grams solvent, the “Solubility in Methyl Amyl Ketone” value is given as 128 grams per 100 grams solvent and the “Solubility in Xylene” value is 197 grams per 100 grams solvent. In data set [5], this molecule gave a Molar Extinction Coefficient E of 19000 L/mol/cm and a Specific Extinction Coefficient a of 43 L/g/cm. The “% loss (by weight) of stabilizer” value in data set [6] was below 3%. In data set [4], the “resistance to thermogravimetric loss” value was “similar”, the “Time (minutes) to 50% Weight Loss of Stabilizer” value stood at 19 min, the “Temperature °C. to 10% Weight Loss of Stabilizer” value worked out at 295 °C and the “Temperature °C. to 50% Weight Loss of Stabilizer” value is 338 °C.
With `CC(C)(c1ccccc1)c1cc(-n2nc3ccc(C(C)(C)c4ccccc4)cc3n2)c(O)c(C(C)(C)c2ccccc2)c1` [Example 21, 5-alpha,alpha-Dimethylbenzyl-2-[2-hydroxy-3,5-di (alpha, alpha-dimethylbenzyl)phenyl]-2H-benzotriazole], in data set [5], the Molar Extinction Coefficient E amounted to 19500 L/mol/cm and the Specific Extinction Coefficient a is 28 L/g/cm. Further, the “% loss (by weight) of stabilizer” value in data set [6] was below 3%. The “solubility of crystalline form melting at 114°-116° C. versus the other crystalline form” value in data set [7] is “far greater solubility in many organic solvents”. Further, in data set [4], the “resistance to thermogravimetric loss” value was “very much more resistant to thermogravimetric loss”, the “Time (minutes) to 50% Weight Loss of Stabilizer” value amounted to 2040 min, the “Temperature °C. to 10% Weight Loss of Stabilizer” value came to 365 °C and the “Temperature °C. to 50% Weight Loss of Stabilizer” value amounted to 412 °C.
In the case of `CC(C)(C)CC(C)(C)c1cc(-n2nc3ccc(C(C)(C)c4ccccc4)cc3n2)c(O)c(C(C)(C)c2ccccc2)c1` [Example 22, 5-alpha,alpha-Dimethylbenzyl-2-(2-hydroxy-3-alpha,alpha-dimethylbenzyl-5-tert-octylphenyl)-2H-benzotriazole], in data set [5], the Molar Extinction Coefficient E amounted to 18500 L/mol/cm and the Specific Extinction Coefficient a was found to be 33 L/g/cm. Besides, in data set [4], the “Time (minutes) to 50% Weight Loss of Stabilizer” value came out at 840 min, the “Temperature °C. to 10% Weight Loss of Stabilizer” value was determined as 340 °C and the “Temperature °C. to 50% Weight Loss of Stabilizer” value amounted to 387 °C.
Take `CCC(C)(C)c1cc(-n2nc3ccc(C(C)(C)c4ccccc4)cc3n2)c(O)c(C(C)(C)CC)c1` [Example 23]: in data set [3], the “Solubility in Butyl Cellosolve Acetate” value was > 100 grams per 100 grams solvent, the “Solubility in Heptane” value is listed as > 100 grams per 100 grams solvent, the “Solubility in Methyl Amyl Ketone” value is > 100 grams per 100 grams solvent and the “Solubility in Xylene” value is > 100 grams per 100 grams solvent. For the same molecule, in data set [5], the Molar Extinction Coefficient E came out at 19100 L/mol/cm and the Specific Extinction Coefficient a stood at 41 L/g/cm. In addition, in data set [4], the “Time (minutes) to 50% Weight Loss of Stabilizer” value was 33 min, the “Temperature °C. to 10% Weight Loss of Stabilizer” value is 285 °C and the “Temperature °C. to 50% Weight Loss of Stabilizer” value worked out at 325 °C.
In data set [5], `CC(C)(C)CC(C)(C)c1cc(-n2nc3ccc(C(C)(C)c4ccccc4)cc3n2)c(O)c(C(C)(C)CC(C)(C)C)c1` [Example 24, 5-alpha,alpha-Dimethylbenzyl-2-(2-hydroxy-3,5-di-tert-octylphenyl)-2H-benzotriazole] displayed a Molar Extinction Coefficient E of 17400 L/mol/cm and a Specific Extinction Coefficient a of 31 L/g/cm. Besides, in data set [4], the “Time (minutes) to 50% Weight Loss of Stabilizer” value was 40 min, the “Temperature °C. to 10% Weight Loss of Stabilizer” value came to 308 °C and the “Temperature °C. to 50% Weight Loss of Stabilizer” value is 348 °C.
In data set [5], `CC(C)(c1ccccc1)c1cc(-n2nc3ccc(Cc4ccccc4)cc3n2)c(O)c(C(C)(C)c2ccccc2)c1` [Example 26, 5-Benzyl-2-[2-hydroxy-3,5-di-(alpha,alpha-dimethylbenzyl)phenyl]-2H-benzotriazole] had a Molar Extinction Coefficient E of 18500 L/mol/cm and a Specific Extinction Coefficient a of 35 L/g/cm. In data set [4], the “resistance to thermogravimetric loss” value was “very much more resistant to thermogravimetric loss”, the “Time (minutes) to 50% Weight Loss of Stabilizer” value was 3780 min, the “Temperature °C. to 10% Weight Loss of Stabilizer” value is 360 °C and the “Temperature °C. to 50% Weight Loss of Stabilizer” value came to 405 °C.
As to `Cc1ccc(O)c(-n2nc3ccccc3n2)c1` [Stabilizer A, 2(2-hydroxy-5-methylphenyl)-2H--benzotriazole], in data set [4], the “Time (minutes) to 50% Weight Loss of Stabilizer” value came out at 0.75 min, the “Temperature °C. to 10% Weight Loss of Stabilizer” value is 182 °C and the “Temperature °C. to 50% Weight Loss of Stabilizer” value was found to be 215 °C.
For `CCC(C)c1cc(-n2nc3ccccc3n2)c(O)c(C(C)(C)C)c1` (stereo not shown) [Stabilizer C, 2(2-hydroxy-3-tert-butyl-5-sec-butylphenyl)-2H--benzotriazole], in that order: 1.0 min, 210 °C and 247 °C.
In the case of `CC(C)(C)CC(C)(C)c1ccc(O)c(-n2nc3ccccc3n2)c1` [Stabilizer D, 2-(2-hydroxy-5-tert-octylphenyl)-2H-benzotriazole], the “% loss (by weight) of stabilizer” value in data set [6] is on record as 40%. The “compatibility / performance in substrates” value in data set [1] was “superior compatibility and performance in polyethylene”. Further, in data set [4], the “Time (minutes) to 50% Weight Loss of Stabilizer” value amounted to 1.9 min, the “Temperature °C. to 10% Weight Loss of Stabilizer” value turned out to be 225 °C and the “Temperature °C. to 50% Weight Loss of Stabilizer” value worked out at 260 °C.
With `Cc1cc(C(C)c2ccccc2)c(O)c(-n2nc3ccccc3n2)c1` (stereo not shown) [Stabilizer E, 2-[2-hydroxy-3-(1-phenylethyl)-5-methylphenyl]-2H-benzotriazole], the “compatibility / performance in substrates” value in data set [1] is reported as “better compatibility”. In data set [2], the “resistance to loss by volatilization” value is “better resistance to loss by volatilization during processing”. Further, in data set [4], the “Time (minutes) to 50% Weight Loss of Stabilizer” value worked out at 3.0 min, the “Temperature °C. to 10% Weight Loss of Stabilizer” value is 250 °C and the “Temperature °C. to 50% Weight Loss of Stabilizer” value was 290 °C.
